Source: ChEMBL document CHEMBL1201862, “PubChem BioAssay data set” (2004)
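All cell lines were grown in 96-well plates and treated with compound for 48 hours. Here, GI50 denotes the concentration required for 50% inhibition of growth.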 Active and inactive are the calls of the source. No stated cut-off is given here; in the data, active = GI50 up to about 1.1 µM and inactive = higher.

What was measured:
Experiment in all cases: NCI-60 cell line screen, 48 h
[1] = tested on: UACC-62
[2] = tested on: SN12C
[3] = tested on: SR
[4] = tested on: OVCAR-3
[5] = tested on: ACHN
[6] = tested on: MDA-MB-435
[7] = tested on: SF-539
[8] = tested on: MCF7
[9] = tested on: SK-MEL-2
[10] = tested on: K562
[11] = tested on: SNB-75
[12] = tested on: COLO 205
[13] = tested on: SF-268
[14] = tested on: HOP-62
[15] = tested on: NCI-H522
[16] = tested on: A549
[17] = tested on: EKVX
[18] = tested on: LOX IMVI
[19] = tested on: RPMI-8226
[20] = tested on: SW-620
[21] = tested on: SF-295
[22] = tested on: HCC 2998
[23] = tested on: MDA-N
[24] = tested on: OVCAR-4
[25] = tested on: HCT-15
[26] = tested on: RXF 393
[27] = tested on: MDA-MB-231
[28] = tested on: TK-10
[29] = tested on: NCI-H226
[30] = tested on: U-251
[31] = tested on: SK-MEL-28
[32] = tested on: Hs-578T
[33] = tested on: OVCAR-5
[34] = tested on: SK-OV-3
[35] = tested on: T47D
[36] = tested on: UO-31
[37] = tested on: Malme-3M
[38] = tested on: DU-145
[39] = tested on: HCT-116
[40] = tested on: KM12
[41] = tested on: HL-60
[42] = tested on: A498
[43] = tested on: NCI-H460
[44] = tested on: SNB-19
[45] = tested on: M14
[46] = tested on: OVCAR-8
[47] = tested on: CAKI-1
[48] = tested on: IGROV-1
[49] = tested on: SK-MEL-5
[50] = tested on: NCI-H23
[51] = tested on: MOLT-4
[52] = tested on: PC-3
[53] = tested on: HT-29
[54] = tested on: NCI/ADR-RES
[55] = tested on: CCRF-CEM
[56] = tested on: UACC-257
[57] = tested on: 786-0
[58] = tested on: BT-549
[59] = tested on: HOP-92

## CON(C)c1nc(N(C)OC)nc(N(C)OC)n1
[1]
  GI50: > 10 µM (inactive)
[2]
  GI50: > 10 µM (inactive)
[3]
  GI50: > 10 µM (inactive)
[4]
  GI50: > 10 µM (inactive)
[5]
  GI50: > 10 µM (inactive)
[6]
  GI50: > 10 µM (inactive)
[7]
  GI50: > 10 µM (inactive)
[8]
  GI50: > 10 µM (inactive)
[9]
  GI50: > 10 µM (inactive)
[10]
  GI50: > 10 µM (inactive)
[11]
  GI50: > 10 µM (inactive)
[12]
  GI50: > 10 µM (inactive)
[13]
  GI50: > 10 µM (inactive)
[14]
  GI50: > 10 µM (inactive)
[15]
  GI50: > 10 µM (inactive)
[16]
  GI50: > 10 µM (inactive)
[17]
  GI50: > 10 µM (inactive)
[18]
  GI50: > 10 µM (inactive)
[19]
  GI50: > 10 µM (inactive)
[20]
  GI50: > 10 µM (inactive)
[21]
  GI50: > 10 µM (inactive)
[22]
  GI50: > 10 µM (inactive)
[23]
  GI50: > 10 µM (inactive)
[24]
  GI50: > 10 µM (inactive)
[25]
  GI50: > 10 µM
[26]
  GI50: > 10 µM (inactive)
[27]
  GI50: > 10 µM (inactive)
[28]
  GI50: > 10 µM (inactive)
[29]
  GI50: > 10 µM (inactive)
[30]
  GI50: > 10 µM (inactive)
[31]
  GI50: > 10 µM (inactive)
[32]
  GI50: > 10 µM (inactive)
[33]
  GI50: > 10 µM (inactive)
[34]
  GI50: > 10 µM (inactive)
[35]
  GI50: > 10 µM (inactive)
[36]
  GI50: > 10 µM (inactive)
[37]
  GI50: > 10 µM (inactive)
[38]
  GI50: > 10 µM (inactive)
[39]
  GI50: > 10 µM (inactive)
[40]
  GI50: > 10 µM (inactive)
[41]
  GI50: > 10 µM (inactive)
[42]
  GI50: > 10 µM (inactive)
[43]
  GI50: > 10 µM (inactive)
[44]
  GI50: > 10 µM (inactive)
[45]
  GI50: > 10 µM (inactive)
[46]
  GI50: > 10 µM (inactive)
[47]
  GI50: > 10 µM (inactive)
[48]
  GI50: > 10 µM (inactive)
[49]
  GI50: > 10 µM (inactive)
[50]
  GI50: > 10 µM (inactive)
[51]
  GI50: > 10 µM (inactive)
[52]
  GI50: > 10 µM (inactive)
[53]
  GI50: > 10 µM (inactive)
[54]
  GI50: > 10 µM (inactive)
[55]
  GI50: > 10 µM (inactive)

## Cc1nnc([C@@]2(C)CC[C@H]3[C@@H](CCC4=CC(=O)CC[C@@]43C)[C@@H]2CC#N)o1
[1]
  GI50: > 100 µM (inactive)
[2]
  GI50: > 100 µM (inactive)
[3]
  GI50: > 100 µM (inactive)
[4]
  GI50: > 100 µM (inactive)
[5]
  GI50: > 100 µM (inactive)
[6]
  GI50: > 100 µM (inactive)
[7]
  GI50: > 100 µM (inactive)
[8]
  GI50: > 100 µM (inactive)
[9]
  GI50: > 100 µM (inactive)
[10]
  GI50: > 100 µM (inactive)
[11]
  GI50: 41 µM (inactive)
[12]
  GI50: > 100 µM (inactive)
[13]
  GI50: > 100 µM (inactive)
[14]
  GI50: > 100 µM (inactive)
[15]
  GI50: > 100 µM (inactive)
[16]
  GI50: > 100 µM (inactive)
[17]
  GI50: > 100 µM (inactive)
[18]
  GI50: > 100 µM (inactive)
[19]
  GI50: > 100 µM (inactive)
[20]
  GI50: > 100 µM (inactive)
[21]
  GI50: > 100 µM (inactive)
[23]
  GI50: > 100 µM (inactive)
[24]
  GI50: > 100 µM (inactive)
[25]
  GI50: > 100 µM
[26]
  GI50: > 100 µM (inactive)
[27]
  GI50: > 100 µM (inactive)
[28]
  GI50: > 100 µM (inactive)
[29]
  GI50: > 100 µM (inactive)
[30]
  GI50: > 100 µM (inactive)
[32]
  GI50: > 100 µM (inactive)
[33]
  GI50: > 100 µM (inactive)
[56]
  GI50: > 100 µM (inactive)
[34]
  GI50: > 100 µM (inactive)
[36]
  GI50: > 100 µM (inactive)
[37]
  GI50: > 100 µM (inactive)
[39]
  GI50: > 100 µM (inactive)
[40]
  GI50: > 100 µM (inactive)
[41]
  GI50: > 100 µM (inactive)
[42]
  GI50: > 100 µM (inactive)
[57]
  GI50: > 100 µM (inactive)
[44]
  GI50: > 100 µM (inactive)
[58]
  GI50: > 100 µM (inactive)
[45]
  GI50: > 100 µM (inactive)
[46]
  GI50: > 100 µM (inactive)
[47]
  GI50: > 100 µM (inactive)
[48]
  GI50: > 100 µM (inactive)
[49]
  GI50: > 100 µM (inactive)
[50]
  GI50: > 100 µM (inactive)
[59]
  GI50: > 100 µM (inactive)
[51]
  GI50: > 100 µM (inactive)
[52]
  GI50: > 100 µM (inactive)
[53]
  GI50: > 100 µM (inactive)
[54]
  GI50: > 100 µM (inactive)
[55]
  GI50: > 100 µM (inactive)
